{"source": "patent US20040086880A1", "about": "“Method of producing nucleic acid molecules with reduced secondary structure” (priority 1999, published 2004)", "key": {"[1]": {"details": "28-mer duplexes; cited from earlier work"}, "Bst DNA polymerase [2]": {"target": "T1, Bst DNA polymerase (Geobacillus stearothermophilus, UniProt P52026)", "T1 sequence (P52026 1-876)": "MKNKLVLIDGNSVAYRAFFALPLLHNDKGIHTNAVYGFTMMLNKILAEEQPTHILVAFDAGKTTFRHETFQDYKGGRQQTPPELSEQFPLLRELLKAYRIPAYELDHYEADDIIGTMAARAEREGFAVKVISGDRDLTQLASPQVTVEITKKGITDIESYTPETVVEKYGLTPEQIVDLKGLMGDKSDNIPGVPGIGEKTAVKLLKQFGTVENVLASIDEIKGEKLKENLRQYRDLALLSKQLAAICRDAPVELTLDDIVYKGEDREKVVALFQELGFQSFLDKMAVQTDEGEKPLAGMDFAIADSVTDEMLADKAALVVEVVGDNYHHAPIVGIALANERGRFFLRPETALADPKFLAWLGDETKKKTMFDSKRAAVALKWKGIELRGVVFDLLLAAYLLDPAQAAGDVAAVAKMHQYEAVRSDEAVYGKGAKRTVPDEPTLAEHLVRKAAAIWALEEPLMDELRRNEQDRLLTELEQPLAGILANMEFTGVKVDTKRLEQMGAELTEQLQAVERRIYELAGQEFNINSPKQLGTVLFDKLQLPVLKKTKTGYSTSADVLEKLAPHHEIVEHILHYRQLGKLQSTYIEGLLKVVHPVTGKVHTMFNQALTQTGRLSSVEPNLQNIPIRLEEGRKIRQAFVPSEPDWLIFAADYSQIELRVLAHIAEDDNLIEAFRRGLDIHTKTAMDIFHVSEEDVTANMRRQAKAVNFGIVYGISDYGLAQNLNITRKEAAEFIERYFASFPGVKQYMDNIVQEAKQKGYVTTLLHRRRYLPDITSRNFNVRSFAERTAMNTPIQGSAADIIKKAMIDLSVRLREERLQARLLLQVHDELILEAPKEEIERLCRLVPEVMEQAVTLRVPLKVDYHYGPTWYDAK", "experiment": "Incorporation specificity of 2-thio-2′-deoxycytidine triphosphate opposite template G or I", "format": "biochemical", "details": "5.0 uM dNTP, 45° C.; for primer extension rate: template I", "method": "The reactions were incubated at 45° C. At 5, 10, 20 and 40 minutes, 7.0 uL aliquots were removed and the reaction mixture was separated by electrophoresis on 20%/7M urea polyacrylamide gels. The products were visualized by phosphorimaging."}, "Bst DNA polymerase [3]": {"target": "T2, Bst DNA polymerase (Geobacillus stearothermophilus, UniProt P52026)", "T2 construct": "purchased New England Biolabs", "T2 sequence (P52026 290-876 limits assumed)": "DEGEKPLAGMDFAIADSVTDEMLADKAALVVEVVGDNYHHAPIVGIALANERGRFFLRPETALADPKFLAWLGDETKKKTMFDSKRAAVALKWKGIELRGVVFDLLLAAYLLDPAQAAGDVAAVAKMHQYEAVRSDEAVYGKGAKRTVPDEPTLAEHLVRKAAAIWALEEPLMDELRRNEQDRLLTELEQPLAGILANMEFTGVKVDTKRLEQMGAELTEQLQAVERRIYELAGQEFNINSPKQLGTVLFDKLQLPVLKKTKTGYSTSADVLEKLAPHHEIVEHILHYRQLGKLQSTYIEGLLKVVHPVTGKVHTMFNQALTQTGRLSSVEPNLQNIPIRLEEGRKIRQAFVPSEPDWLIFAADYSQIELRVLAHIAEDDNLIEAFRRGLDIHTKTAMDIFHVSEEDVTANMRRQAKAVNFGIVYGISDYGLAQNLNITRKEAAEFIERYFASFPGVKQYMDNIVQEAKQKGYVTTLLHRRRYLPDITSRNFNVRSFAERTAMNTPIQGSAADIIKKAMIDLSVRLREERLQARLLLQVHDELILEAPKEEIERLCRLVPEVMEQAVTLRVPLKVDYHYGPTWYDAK", "experiment": "Single nucleotide extension of 6-mer primers at varying dNTP concentration", "format": "biochemical", "details": "for extension efficiency of 6-mer primer compared with natural dNTP: dNTP 0.5 microM to 130 microM, 45° C., 8 hours", "method": "To further assess the incorporation efficiency of the modified nucleotides by Bst DNA polymerase, the efficiency for a single nucleotide extension reaction was determined using two 6-mer primers in the presence of varying concentrations of dATP, 2-amino-2′-deoxyadenosine-5′-triphosphate, dTTP or 2-thiothymidine-5′-triphosphate (illustrated as 2-thioTTP) (FIGS. 3A and 4A). For this study, the reaction mixtures contained: 20 mM Tris-Cl (pH 8.8 @ 25° C.), 10 mM KCl, 10 mM (NH4)2SO4, 2 mM MgSO4, 0.1% Triton-X100, 500 nanoM 6-mer primer, 20 nanoM 30-mer DNA template, 0.8 units/microL (˜70 nanoM) Bst DNA polymerase and a dNTP concentration ranging from 0.5 microM to 130 microM. The reaction mixtures were incubated at 45° C. for 8 hours and separated by electrophoresis on 20% denaturing (7M urea) polyacrylamide gels."}, "[4]": {"target": "T3, SuperScript II MMLV reverse transcriptase (Moloney murine leukemia virus, UniProt P03355, D1183G/D1242N/E1221Q)", "T3 construct": "200 units of SuperScript II MMLV reverse transcriptase (InVitrogen); purchased InVitrogen", "experiment": "Synthesis of full-length cUNA from polyadenylated T7-RNA transcripts", "format": "biochemical", "details": "additional substitution for GTP; relative to natural dNTP or D/S substituted reactions", "method": "The ability to synthesize full-length UNA copies (cUNAs) of polyadenylated RNA was tested using various reverse transcriptase enzymes and three T7-RNA transcripts having 3′-polyadenylated tails as templates. The three T7-RNA transcripts correspond to the genes for the penicillin binding protein from E. coli (pBp-1), the chlorophyll A/B binding protein from Arabidopsis thaliana (Cab), and nucleotides 5-335 of the Hepatitis C virus (HCV) genome (See FIG. 32 (panel A)). The expected length of the cUNAs generated from the three polyadenylated RNAs using an oligo-dT primer is 1194, 729 and 360 nucleotides respectively (see FIG. 32 (panel B)).\nThe reverse transcriptase reactions (15.0 uL) were performed in 0.65 mL pre-siliconized microfuge tubes containing the following components: 50 mM Tris-Cl (pH 8.3), 75 mM KCl, 3.0 mM MgCl2, 4.5 mM DTT, 500 uM dGTP (or dITP), 500 uM dATP (or 2-amino-2′-deoxyadenosine-5′-triphosphate), 500 uM TTP (or 2-thiothymidine-5′-triphosphate), 100 uM dCTP, 0.33 uCi of ^32P-α-dCTP, 20 nM each T7-RNA template, 1.0 uM T16N2 primer, 1.0 unit of RNase Out (In Vitrogen), and 200 units of SuperScript II MMLV reverse transcriptase (InVitrogen). The buffer components, RNA template and primer were annealed by heating to 75° C. for 4 minutes and quickly cooled to room temperature. […]"}, "T7 RNA polymerase": {"target": "T4, T7 RNA polymerase (Escherichia phage T7, UniProt P00573)", "T4 construct": "purchased Ambion Inc", "T4 sequence (P00573 whole entry)": "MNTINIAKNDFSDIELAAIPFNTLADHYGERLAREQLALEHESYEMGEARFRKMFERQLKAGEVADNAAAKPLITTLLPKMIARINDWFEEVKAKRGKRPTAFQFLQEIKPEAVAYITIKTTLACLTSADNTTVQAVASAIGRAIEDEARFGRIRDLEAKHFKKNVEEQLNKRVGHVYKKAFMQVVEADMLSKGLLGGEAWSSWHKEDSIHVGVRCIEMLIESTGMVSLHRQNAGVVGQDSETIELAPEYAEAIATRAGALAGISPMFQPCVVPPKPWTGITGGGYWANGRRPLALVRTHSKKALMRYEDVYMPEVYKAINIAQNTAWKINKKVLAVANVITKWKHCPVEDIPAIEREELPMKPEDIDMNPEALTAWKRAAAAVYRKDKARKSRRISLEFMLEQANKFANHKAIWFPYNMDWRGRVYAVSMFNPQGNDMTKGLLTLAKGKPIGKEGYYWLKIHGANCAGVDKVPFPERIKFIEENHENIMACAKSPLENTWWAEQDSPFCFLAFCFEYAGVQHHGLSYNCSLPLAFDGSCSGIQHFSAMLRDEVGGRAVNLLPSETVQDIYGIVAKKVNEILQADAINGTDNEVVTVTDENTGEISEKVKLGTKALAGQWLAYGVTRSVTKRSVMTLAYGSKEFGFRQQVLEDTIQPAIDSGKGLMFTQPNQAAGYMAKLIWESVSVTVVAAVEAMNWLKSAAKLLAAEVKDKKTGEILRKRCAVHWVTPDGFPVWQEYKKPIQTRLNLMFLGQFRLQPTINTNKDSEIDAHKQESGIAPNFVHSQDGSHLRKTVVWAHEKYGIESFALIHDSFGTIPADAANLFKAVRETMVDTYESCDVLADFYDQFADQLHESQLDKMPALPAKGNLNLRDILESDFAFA", "experiment": "Transcription of ribo-UNA from linearized DNA template", "format": "biochemical", "details": "substituted for ATP and UTP; 37° C., one hour", "method": "The ability to transcribe longer ribo-UNAs (rUNAs) using T7 RNA polymerase and the corresponding modified ribonucleotide triphosphates was tested using a linear double-stranded DNA template. A plasmid DNA containing the human retinoblastoma gene under control of a T7 RNA polymerase promoter was digested with the restriction endonucleases XbaI and AflII. The resulting linearized plasmid templates for a 138 nucleotide transcript when transcribed with T7 RNA polymerase (see FIG. 34A).\nThe transcription reactions (20 uL) contained 1× transcription buffer (Ambion Inc.), 0.5 mM GTP, 0.5 mM ATP (or 2-aminoadenosine-5′-triphosphate (rD)), 0.5 mM UTP (or 2-thiouridine-5′-triphosphate (rS), 1.6 uM α-^32P-CTP, 1 ug of the linearized DNA template and 10 units of T7 RNA polymerase (Ambion Inc.). The reaction mixtures were incubated at 37° C. for one hour and then separated by electrophoresis on a 6%/7M urea polyacrylamide gel."}}, "data": [{"smiles": "c1cc2[nH]cncc-2n1", "note": "[P, pyrrolo-pyrimidine]", "values": [{"measurement": "change of duplex Tm per modified base pair", "setting": "[1]", "value": "−0.5", "unit": "°C"}]}, {"smiles": "Nc1ccn([C@H]2C[C@H](O)[C@@H](COP(=O)(O)OP(=O)(O)OP(=O)(O)O)O2)c(=O)n1", "note": "[dCTP, 2′-deoxycytidine-5′-triphosphate, reference compound]", "values": [{"measurement": "conversion of the 12-mer primer to the 13-mer extension product", "setting": "Bst DNA polymerase [2]; template G", "value": "efficient conversion"}, {"measurement": "primer extension rate", "setting": "Bst DNA polymerase [2]", "value": "equivalent"}]}, {"smiles": "Nc1ccn([C@H]2C[C@H](O)[C@@H](COP(=O)(O)OP(=O)(O)OP(=O)(O)O)O2)c(=S)n1", "note": "[2-thio-2′-deoxycytidine triphosphate, 2-thio-2′-deoxycytidine-5′-triphosphate]", "values": [{"measurement": "primer extension rate", "setting": "Bst DNA polymerase [2]", "value": "equivalent"}]}, {"smiles": "Cc1cn([C@H]2C[C@H](O)[C@@H](COP(=O)(O)OP(=O)(O)OP(=O)(O)O)O2)c(=O)[nH]c1=O", "note": "[dTTP, 2′-deoxythymidine-5′-triphosphate, reference compound]", "values": [{"measurement": "EC50", "setting": "Bst DNA polymerase [3]", "value": "~4", "unit": "µM"}, {"measurement": "extension efficiency of 6-mer primer compared with natural dNTP", "setting": "Bst DNA polymerase [3]", "value": "very similar"}]}, {"smiles": "O=P(O)(O)OP(=O)(O)OP(=O)(O)OC[C@H]1O[C@@H](n2cnc3c(O)ncnc32)C[C@@H]1O", "note": "[ITP, 2′-deoxyinosine-5′-triphosphate]", "values": [{"measurement": "reduction of yield of full-length product", "setting": "[4]", "value": "about 2 fold"}]}, {"smiles": "Nc1nc(N)c2ncn([C@@H]3O[C@H](COP(=O)(O)OP(=O)(O)OP(=O)(O)O)[C@@H](O)[C@H]3O)c2n1", "note": "[2-aminoadenosine-5′-triphosphate]", "values": [{"measurement": "full-length product (138 nucleotide transcript)", "setting": "T7 RNA polymerase", "value": "full-length product is generated"}]}, {"smiles": "Nc1ncnc2c1ncn2[C@H]1C[C@H](O)[C@@H](COP(=O)(O)OP(=O)(O)OP(=O)(O)O)O1", "note": "[dATP, 2′-deoxyadenosine-5′-triphosphate, reference compound]", "values": [{"measurement": "extension efficiency of 6-mer primer compared with natural dNTP", "setting": "Bst DNA polymerase [3]", "value": "approximately equal efficiencies"}]}, {"smiles": "OC[C@H]1O[C@@H](n2cnc3c(O)ncnc32)[C@H](O)[C@@H]1O", "note": "[I, inosine]", "values": [{"measurement": "change of duplex Tm per modified base pair", "setting": "[1]", "value": "−1.9", "unit": "°C"}]}, {"smiles": "O=c1ccn([C@@H]2O[C@H](COP(=O)(O)OP(=O)(O)OP(=O)(O)O)[C@@H](O)[C@H]2O)c(=S)[nH]1", "note": "[2-thiouridine-5′-triphosphate]", "values": [{"measurement": "full-length product (138 nucleotide transcript)", "setting": "T7 RNA polymerase", "value": "full-length product is generated"}]}]}
